Earlier results as cited in patent publication US20250049743A1, “METHOD OF PRODUCING AN ORAL OSMOTIC PHARMACEUTICAL DELIVERY SYSTEM AND A PHARMACEUTICAL BATCH PRODUCED USING THE SAME” (United Therapeutics Corporation, priority 2023, published 2025).

Conditions: treprostinil as the free acid

absolute oral bioavailability: less than 10%
Compound: CCCCC[C@H](O)CC[C@@H]1[C@H]2Cc3cccc(OCC(=O)O)c3C[C@H]2C[C@H]1O [treprostinil]
